Source: PubChem BioAssay AID328 (DTP/NCI, 2004)
Where “and” joins values, the source holds several entries; their conditions need not be identical. Identical values can stand only once. Inconclusive results and toxic doses are left out.

System: BDF1 mice, P388 leukemia ip, median survival T/C
Assay: NCI In Vivo Anticancer Drug Screen. Data for tumor model P388 Leukemia (intraperitoneal) in B6D2F1 (BDF1) mice
Conditions: endpoint: median survival time, higher = longer survival
Procedure, shortened: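 Steps: implant the tumour, treat one group with compound and another with vehicle, record survival, then divide treated by control.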

[1] = dose: 50.0 mg/kg/injection, schedule: Q04DX003 (ip), vehicle: saline with Tween-80
[2] = dose: 100.0 mg/kg/injection, schedule: Q04DX003 (ip), vehicle: saline with Tween-80
[3] = dose: 200.0 mg/kg/injection, schedule: Q04DX003 (ip), vehicle: saline with Tween-80
[4] = dose: 100.0 mg/kg/injection, schedule: Q01DX001 (ip), vehicle: saline with Tween-80
[5] = dose: 200.0 mg/kg/injection, schedule: Q01DX001 (ip), vehicle: saline with Tween-80
[6] = dose: 50.0 mg/kg/injection, schedule: Q01DX009 (ip), vehicle: saline
[7] = dose: 50.0 mg/kg/injection, schedule: Q01DX009 (ip), vehicle: saline with Tween-80
[8] = dose: 100.0 mg/kg/injection, schedule: Q01DX009 (ip), vehicle: saline with Tween-80
[9] = dose: 12.5 mg/kg/injection, schedule: Q01DX009 (ip), vehicle: saline

COc1cc([C@@H]2c3cc4c(cc3[C@H](O)[C@H]3COC(=O)[C@@H]23)OCO4)cc(OC)c1OC
T/C (dose: 7.7 mg/kg/injection, schedule: Q01DX010 (ip), vehicle: carboxymethylcellulose (CMC)): 115 % of control
T/C (dose: 12.0 mg/kg/injection, schedule: Q01DX009 (ip), vehicle: Klucel (hydroxypropylcellulose) (HPC)): 166 % of control
T/C (dose: 18.0 mg/kg/injection, schedule: Q01DX009 (ip), vehicle: Klucel (hydroxypropylcellulose) (HPC)): 185 % of control
T/C (dose: 27.0 mg/kg/injection, schedule: Q01DX009 (ip), vehicle: Klucel (hydroxypropylcellulose) (HPC)): 195 % of control
T/C (dose: 30.8 mg/kg/injection, schedule: Q01DX010 (ip), vehicle: carboxymethylcellulose (CMC)): 210 % of control
T/C (dose: 37.5 mg/kg/injection, schedule: Q04DX003 (ip), vehicle: saline sonified): 113 % of control
T/C (dose: 40.0 mg/kg/injection, schedule: Q01DX009 (ip), vehicle: Klucel (hydroxypropylcellulose) (HPC)): 233 % of control
T/C (dose: 60.0 mg/kg/injection, schedule: Q01DX009 (ip), vehicle: Klucel (hydroxypropylcellulose) (HPC)): 252 % of control
T/C (dose: 75.0 mg/kg/injection, schedule: Q04DX003 (ip), vehicle: saline sonified): 122 % of control
T/C (dose: 150.0 mg/kg/injection, schedule: Q04DX003 (ip), vehicle: saline sonified): 180 % of control and 204 % of control
T/C (dose: 225.0 mg/kg/injection, schedule: Q04DX003 (ip), vehicle: saline sonified): 300 % of control

Cc1ccc(CNc2cc(C)ccn2)cc1
T/C [1]: 105 % of control
T/C [2]: 110 % of control
T/C [3]: 110 % of control

O=S1(=O)C=CCC2C3CCC(C3)C21 (stereo not drawn)
T/C [4]: 100 % of control
T/C [5]: 106 % of control

O=C(/C=C/c1ccccc1)c1ccc2c(c1)OCO2
T/C (dose: 50.0 mg/kg/injection, schedule: Q01DX009 (ip), vehicle: water): 99 % of control
T/C (dose: 50.0 mg/kg/injection, schedule: Q04DX003 (ip), vehicle: water): 99 % of control
T/C (dose: 100.0 mg/kg/injection, schedule: Q01DX009 (ip), vehicle: water): 108 % of control
T/C (dose: 100.0 mg/kg/injection, schedule: Q04DX003 (ip), vehicle: water): 94 % of control
T/C (dose: 200.0 mg/kg/injection, schedule: Q01DX009 (ip), vehicle: water): 101 % of control
T/C (dose: 200.0 mg/kg/injection, schedule: Q04DX003 (ip), vehicle: water): 103 % of control
T/C (dose: 400.0 mg/kg/injection, schedule: Q01DX009 (ip), vehicle: water): 108 % of control
T/C (dose: 400.0 mg/kg/injection, schedule: Q04DX003 (ip), vehicle: water): 94 % of control

CN=C(c1ccccc1)C1(O)CC2CCC1C2 (stereo not drawn)
T/C [4]: 100 % of control
T/C [5]: 104 % of control
T/C (dose: 400.0 mg/kg/injection, schedule: Q01DX001 (ip), vehicle: saline with Tween-80): 100 % of control

Nc1ccc(Nc2ccccc2)c(S(=O)(=O)O)c1
T/C [6]: 116 % of control
T/C (dose: 100.0 mg/kg/injection, schedule: Q01DX009 (ip), vehicle: saline): 100 % of control
T/C (dose: 200.0 mg/kg/injection, schedule: Q01DX009 (ip), vehicle: saline): 108 % of control
T/C (dose: 400.0 mg/kg/injection, schedule: Q01DX009 (ip), vehicle: saline): 104 % of control and 116 % of control

CC1=NN(c2ccccc2)C(=O)C1C(=S)SC1CC(=O)NC1=O (stereo not drawn)
T/C [7]: 117 % of control
T/C [8]: 103 % of control
T/C (dose: 200.0 mg/kg/injection, schedule: Q01DX009 (ip), vehicle: saline with Tween-80): 108 % of control

Clc1ccc2c(c1)Cc1cc(N=Cc3ccccc3Cl)ccc1-2
T/C (dose: 42.5 mg/kg/injection, schedule: Q01DX001 (ip), vehicle: other): 86 % of control
T/C (dose: 85.0 mg/kg/injection, schedule: Q01DX001 (ip), vehicle: other): 95 % of control
T/C (dose: 170.0 mg/kg/injection, schedule: Q01DX001 (ip), vehicle: other): 100 % of control
T/C (dose: 170.0 mg/kg/injection, schedule: Q01DX001 (ip), vehicle: saline with Tween-80): 100 % of control

CCCCC(=O)c1ccc(Cl)cc1
T/C (dose: 100.0 mg/kg/injection, schedule: Q01DX009 (ip), vehicle: Klucel (hydroxypropylcellulose) (HPC)): 105 % of control
T/C (dose: 100.0 mg/kg/injection, schedule: Q04DX003 (ip), vehicle: Klucel (hydroxypropylcellulose) (HPC)): 104 % of control
T/C (dose: 200.0 mg/kg/injection, schedule: Q01DX009 (ip), vehicle: Klucel (hydroxypropylcellulose) (HPC)): 110 % of control
T/C (dose: 200.0 mg/kg/injection, schedule: Q04DX003 (ip), vehicle: Klucel (hydroxypropylcellulose) (HPC)): 100 % of control
T/C (dose: 400.0 mg/kg/injection, schedule: Q01DX009 (ip), vehicle: Klucel (hydroxypropylcellulose) (HPC)): 115 % of control
T/C (dose: 400.0 mg/kg/injection, schedule: Q04DX003 (ip), vehicle: Klucel (hydroxypropylcellulose) (HPC)): 100 % of control

CC(=O)OC1C=CCC23C(=O)C=CC(=O)C12C(=O)c1ccccc1C3=O (stereo not drawn)
T/C (dose: 1.56 mg/kg/injection, schedule: Q01DX009 (ip), vehicle: saline): 102 % of control
T/C (dose: 3.12 mg/kg/injection, schedule: Q01DX009 (ip), vehicle: saline): 93 % of control
T/C (dose: 6.25 mg/kg/injection, schedule: Q01DX009 (ip), vehicle: saline): 95 % of control
T/C [9]: 95 % of control
T/C [6]: 107 % of control

c1ccc(COC2CN3CCC2CC3)cc1 (stereo not drawn)
T/C (dose: 25.0 mg/kg/injection, schedule: Q04DX003 (ip), vehicle: saline with Tween-80): 122 % of control
T/C [1]: 100 % of control

Nn1nc2ccccc2n1
T/C (dose: 100.0 mg/kg/injection, schedule: Q04DX003 (ip), vehicle: other): 100 % of control
T/C (dose: 200.0 mg/kg/injection, schedule: Q04DX003 (ip), vehicle: other): 100 % of control
T/C (dose: 400.0 mg/kg/injection, schedule: Q04DX003 (ip), vehicle: other): 100 % of control

NC(CC(=O)CCl)C(=O)O (stereo not drawn)
T/C (dose: 8.25 mg/kg/injection, schedule: Q04DX003 (ip), vehicle: saline with Tween-80): 154 % of control
T/C (dose: 12.5 mg/kg/injection, schedule: Q04DX003 (ip), vehicle: Klucel (hydroxypropylcellulose) (HPC)): 165 % of control
T/C (dose: 12.5 mg/kg/injection, schedule: Q04DX003 (ip), vehicle: saline with Tween-80): 172 % of control
T/C (dose: 18.75 mg/kg/injection, schedule: Q04DX003 (ip), vehicle: saline with Tween-80): 109 % of control
T/C (dose: 25.0 mg/kg/injection, schedule: Q04DX003 (ip), vehicle: Klucel (hydroxypropylcellulose) (HPC)): 165 % of control

CCCCCCCCCCCC[N+]1([O-])CCCC1
T/C [9]: 100 % of control
T/C (dose: 25.0 mg/kg/injection, schedule: Q01DX009 (ip), vehicle: saline): 93 % of control
T/C [6]: 87 % of control

COc1cc(/C=C2\C(=O)NC(=O)N(c3ccccc3)C2=O)cc(OC)c1OC
T/C (dose: 25.0 mg/kg/injection, schedule: Q01DX009 (ip), vehicle: saline with Tween-80): 109 % of control
T/C [7]: 118 % of control
T/C [1]: 100 % of control
T/C [8]: 118 % of control
T/C [2]: 108 % of control
T/C [3]: 112 % of control

CCCCC(O)C1=CC(=O)C2CC(C)=C(C)CC2C1=O (stereo not drawn)
T/C [2]: 92 % of control
T/C [3]: 102 % of control
T/C (dose: 400.0 mg/kg/injection, schedule: Q04DX003 (ip), vehicle: saline with Tween-80): 100 % of control

CC1CN=C(c2ccc(NC(=O)Nc3ccc(C(=O)Nc4ccc(C5=NCC(C)N5)cc4)cc3)cc2)N1 (stereo not drawn)
T/C (dose: 66.0 mg/kg/injection, schedule: Q04DX003 (ip), vehicle: saline with Tween-80): 168 % of control and 209 % of control
T/C [2]: 90 % of control and 222 % of control
T/C (dose: 150.0 mg/kg/injection, schedule: Q04DX003 (ip), vehicle: saline with Tween-80): 100 % of control

COc1cc2cc(c1Cl)NC(=O)CC(OC(=O)C(C)N(C)C(=O)C1(C)CC1C)C1(C)OC1C(C)C1CC(O)(NC(=O)O1)C(OC)C=C/C=C(\C)C2 (stereo not drawn)
T/C (dose: 0.1 micrograms/kg/injection, schedule: Q01DX009 (ip), vehicle: saline + alcohol): 115 % of control
T/C (dose: 0.2 micrograms/kg/injection, schedule: Q01DX009 (ip), vehicle: saline + alcohol): 165 % of control
T/C (dose: 0.4 micrograms/kg/injection, schedule: Q01DX009 (ip), vehicle: saline + alcohol): 165 % of control
T/C (dose: 0.8 micrograms/kg/injection, schedule: Q01DX009 (ip), vehicle: saline + alcohol): 155 % of control
T/C (dose: 1.6 micrograms/kg/injection, schedule: Q01DX009 (ip), vehicle: saline + alcohol): 167 % of control and 175 % of control
T/C (dose: 3.1 micrograms/kg/injection, schedule: Q01DX009 (ip), vehicle: saline + alcohol): 184 % of control and 190 % of control
T/C (dose: 6.2 micrograms/kg/injection, schedule: Q01DX009 (ip), vehicle: saline + alcohol): 233 % of control and 300 % of control
T/C (dose: 12.5 micrograms/kg/injection, schedule: Q01DX009 (ip), vehicle: saline + alcohol): 184 % of control and 200 % of control
T/C (dose: 25.0 micrograms/kg/injection, schedule: Q01DX009 (ip), vehicle: saline + alcohol): 87 % of control and 90 % of control
